This experiment has as its target T1, Human recombinant enteropeptidase (Homo sapiens, UniProt P98073).
T1 construct: purchased ITSI-Biosciences, LLC #REN-260
Kind of experiment: Human enteropeptidase inhibitory activity. Conditions: 3.3 uM test compound, fluorescence intensity 2 hours after start of reaction; for inhibition at 3.3 µM: read-out: Inhibition rate at 3.3 uM (%). It is filed as biochemical. The method, then: Human recombinant enteropeptidase (#REN-260, ITSI-Biosciences, LLC) was diluted with an assay buffer (50 mM Tricine (pH 8.0), 0.01 (w/v) % Tween 20, 10 mM CaCl2) to prepare a 24 mU/mL enzyme solution. Subsequently, 5FAM-Abu-Gly-Asp-Asp-Asp-Lys-Ile-Val-Gly-Gly-Lys(CPQ2)-Lys-Lys-NH2 (purity: 97.2%, CPC Scientific, Inc.) produced according to a synthesis method known per se was diluted with an assay buffer to prepare a 2.1 uM (“u” represents “micro”) substrate solution. Each test compound was dissolved in DMSO to prepare a 1 mM solution, which was then diluted 100-fold with an assay buffer to prepare a compound solution. The compound solution (5 uL/well) and the substrate solution (5 uL/well) were added to a 384-well black plate (#784076, Greiner Bio-One) and mixed. Then, the enzyme solution (5 uL/well) was added to the plate and mixed to start reaction. The fluorescence intensity was measured at an excitation wavelength of 485 nm and a fluorescence wavelength of 535 nm using a fluorescence plate reader EnVision (PerkinElmer Inc.). Also, the same reaction as above was performed except that the test compound was not added (test compound non-supplemented group). In addition, the same reaction as above was performed except that neither the test compound nor the enzyme was added (control group). The inhibition rate was calculated from the fluorescence intensity 2 hours after the start of the reaction according to the following equation: Inhibition rate (%)=(1−(Fluorescence intensity of the test compound supplemented group−Fluorescence intensity of the control group)/(Fluorescence intensity of the test compound non-supplemented group−Fluorescence intensity of the control group))×100

The values that follow come from US10023544B2, “Heterocyclic compound” (Takeda Pharmaceutical Company Limited, priority 2014, dated 2018).

Where a name gives a salt, the structure may show the parent alone.

T1 sequence (P98073 whole entry): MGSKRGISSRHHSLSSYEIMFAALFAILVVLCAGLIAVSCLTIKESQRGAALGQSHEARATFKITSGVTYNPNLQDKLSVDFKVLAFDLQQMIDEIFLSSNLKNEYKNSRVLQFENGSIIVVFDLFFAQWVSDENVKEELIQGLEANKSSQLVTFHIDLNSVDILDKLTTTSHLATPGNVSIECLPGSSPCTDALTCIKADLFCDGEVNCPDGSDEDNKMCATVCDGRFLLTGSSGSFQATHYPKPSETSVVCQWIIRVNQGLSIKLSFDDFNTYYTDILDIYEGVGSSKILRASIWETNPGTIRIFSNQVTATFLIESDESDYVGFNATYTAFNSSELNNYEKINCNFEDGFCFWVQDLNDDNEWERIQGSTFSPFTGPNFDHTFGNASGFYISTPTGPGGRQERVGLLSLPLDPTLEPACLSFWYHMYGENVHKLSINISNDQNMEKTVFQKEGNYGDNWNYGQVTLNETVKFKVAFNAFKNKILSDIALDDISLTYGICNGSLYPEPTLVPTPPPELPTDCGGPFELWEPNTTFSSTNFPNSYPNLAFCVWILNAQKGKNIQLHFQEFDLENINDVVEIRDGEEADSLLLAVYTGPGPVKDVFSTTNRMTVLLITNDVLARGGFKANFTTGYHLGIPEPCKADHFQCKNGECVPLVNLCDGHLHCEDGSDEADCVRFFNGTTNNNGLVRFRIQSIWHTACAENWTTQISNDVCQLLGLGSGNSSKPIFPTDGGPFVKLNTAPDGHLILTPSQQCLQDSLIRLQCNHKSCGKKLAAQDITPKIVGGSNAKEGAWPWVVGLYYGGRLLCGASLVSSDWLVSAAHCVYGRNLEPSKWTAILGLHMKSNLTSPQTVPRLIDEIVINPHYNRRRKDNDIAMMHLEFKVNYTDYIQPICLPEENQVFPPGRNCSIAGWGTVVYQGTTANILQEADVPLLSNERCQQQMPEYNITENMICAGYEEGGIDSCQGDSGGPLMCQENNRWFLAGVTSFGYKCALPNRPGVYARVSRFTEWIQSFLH

The inhibition is the drop in the measured response relative to a control, in per cent. For the compound `N=C(N)Nc1ccc(C(=O)Oc2ccc(C3=NOC(CC(=O)O)(C(=O)O)C3)cc2)cc1` (stereo not drawn) [Example 2, 3-(4-((4-carba-mimidamidobenzoyl)oxy)phenyl)-5-(carboxymethyl)-4,5-dihydro-1,2-oxazole-5-carboxylic acid], the inhibition at 3.3 µM was 101%.
Still for that read-out and setting: the same measure for `Cc1ccc(OC(=O)c2ccc(NC(=N)N)cc2)cc1C1=NOC(CC(=O)O)(C(=O)O)C1` (stereo not drawn) [Example 3, 3-(5-((4-Carbamimidamidobenzoyl)oxy)-2-methylphenyl)-5-(carboxymethyl)-4,5-dihydro-1,2-oxazole-5-carboxylic acid trifluoroacetate]: 101%; for `N=C(N)Nc1ccc(C(=O)Oc2cccc(C3=NOC(CCC(=O)O)(CCC(=O)O)C3)c2)cc1` [Example 4, 3,3′-(3-(3-((4-carba-mimidamidobenzoyl)oxy)phenyl)-4,5-dihydro-1,2-oxazole-5,5-diyl)dipropanoic acid]: 101%.
The same measure, in the same setting: the same measure for `N=C(N)Nc1ccc(C(=O)Oc2cccc(C3=NOC(CC(=O)O)(CC(=O)O)C3)c2)cc1` [Example 6, 2,2′-(3-(3-((4-Carbamimidamidobenzoyl)oxy)phenyl)-4,5-dihydro-1,2-oxazole-5,5-diyl)diacetic acid]: 100%; for `N=C(N)Nc1ccc(C(=O)Oc2ccc(C3CCN(C(=O)CCC(=O)O)CC3)c(C3=NOC(CC(=O)O)(CC(=O)O)C3)c2)cc1` [Example 7, 4-(4-(2-(5,5-Bis(carboxymethyl)-4,5-dihydro-1,2-oxazol-3-yl)-4-((4-carbamimidamidobenzoyl)oxy)phenyl)piperidin-1-yl)-4-oxobutanoic acid trifluoroacetate]: 101%; for `N=C(N)Nc1ccc(C(=O)Oc2ccc(C3CCCCC3)c(C3=NOC(CC(=O)O)(C(=O)O)C3)c2)cc1` (stereo not drawn) [Example 8, 3-(5-((4-Carbamimidamidobenzoyl)oxy)-2-cyclohexylphenyl)-5-(carboxymethyl)-4,5-dihydro-1,2-oxazole-5-carboxylic acid trifluoroacetate]: 101%.
Same read-out and setting: to `N=C(N)Nc1ccc(C(=O)Oc2ccc(-c3ccccc3)c(C3=NOC(CC(=O)O)(C(=O)O)C3)c2)cc1` (stereo not drawn) [Example 9, 3-(4-((4-carbamimidamidobenzoyl)oxy)biphenyl-2-yl)-5-(carboxymethyl)-4,5-dihydro-1,2-oxazole-5-carboxylic acid] belongs 101%; to `CC(C)(C)C1CCC(c2ccc(OC(=O)c3ccc(NC(=N)N)cc3)cc2C2=NOC(CC(=O)O)(C(=O)O)C2)CC1` (stereo not drawn) [Example 10, 3-(2-(4-tert-butylcyclohexyl)-5-((4-carbamimidamidobenzoyl)oxy)phenyl)-5-(carboxymethyl)-4,5-dihydro-1,2-oxazole-5-carboxylic acid], 101%; to `Cc1cc(OC(=O)c2ccc(NC(=N)N)cc2)cc(C2=NOC(CC(=O)O)(C(=O)O)C2)c1` (stereo not drawn) [Example 11, 3-(3-((4-Carbamimidamidobenzoyl)oxy)-5-methylphenyl)-5-(carboxymethyl)-4,5-dihydro-1,2-oxazole-5-carboxylic acid trifluoroacetate], 100%.
Regarding `CC(C)(C)C1CCC(c2cc(OC(=O)c3ccc(NC(=N)N)cc3)cc(C3=NOC(CC(=O)O)(C(=O)O)C3)c2)CC1` (stereo not drawn) [Example 12, 3-(3-(4-tert-butylcyclohexyl)-5-((4-carbamimidamidobenzoyl)oxy)phenyl)-5-(carboxymethyl)-4,5-dihydro-1,2-oxazole-5-carboxylic acid (trans or cis form)], the inhibition at 3.3 µM was found to be 101%.
Take `CC(C)(C)C1CCC(c2cc(OC(=O)c3ccc(NC(=N)N)cc3)cc(C3=NOC(CC(=O)O)(C(=O)O)C3)c2)CC1` (stereo not drawn) [Example 13, 3-(3-(4-tert-butylcyclohexyl)-5-((4-carbamimidamidobenzoyl)oxy)phenyl)-5-(carboxymethyl)-4,5-dihydro-1,2-oxazole-5-carboxylic acid (cis or trans form)]: the “Inhibition rate at 3.3 uM (%)” value (3.3 µM) is on record as 100%.
On to `N=C(N)Nc1ccc(C(=O)Oc2cc(CCC(=O)O)cc(C3=NOC(CC(=O)O)(C(=O)O)C3)c2)cc1` (stereo not drawn) [Example 14, 3-(3-((4-Carbamimidamidobenzoyl)oxy)-5-(2-carboxyethyl)phenyl)-5-(carboxymethyl)-4,5-dihydro-1,2-oxazole-5-carboxylic acid trifluoroacetate], for which the inhibition at 3.3 µM was found to be 100%.
On the same count and under the same terms, the same measure for `N=C(N)Nc1ccc(C(=O)Oc2ccc(CCC(=O)O)c(C3=NOC(CC(=O)O)(C(=O)O)C3)c2)cc1` (stereo not drawn) [Example 15, 3-(5-((4-carbamimidamidobenzoyl)oxy)-2-(2-carboxyethyl)phenyl)-5-(carboxymethyl)-4,5-dihydro-1,2-oxazole-5-carboxylic acid]: 101%; for `Cc1c(OC(=O)c2ccc(NC(=N)N)cc2)cccc1C1=NOC(CC(=O)O)(C(=O)O)C1` (stereo not drawn) [Example 16, 3-(3-((4-carbamimidamidobenzoyl)oxy)-2-methylphenyl)-5-(carboxymethyl)-4,5-dihydro-1,2-oxazole-5-carboxylic acid]: 100%; for `Cc1ccc(C2=NOC(CC(=O)O)(C(=O)O)C2)cc1OC(=O)c1ccc(NC(=N)N)cc1` (stereo not drawn) [Example 17, 3-(3-((4-carbamimidamidobenzoyl)oxy)-4-methylphenyl)-5-(carboxymethyl)-4,5-dihydro-1,2-oxazole-5-carboxylic acid]: 87%.
Turning to `N=C(N)Nc1ccc(C(=O)Oc2ccc(CCC(=O)N[C@@H](CC(=O)O)C(=O)O)c(C3=NOC(CC(=O)O)(C(=O)O)C3)c2)cc1` (stereo partly drawn) [Example 18, N-(3-(4-((4-Carbamimidamidobenzoyl)oxy)-2-(5-carboxy-5-(carboxymethyl)-4,5-dihydro-1,2-oxazol-3-yl)phenyl)propanoyl)-L-aspartic acid trifluoroacetate], the inhibition at 3.3 µM was found to be 100%.
For `N=C(N)Nc1ccc(C(=O)Oc2cc(CCC(=O)N[C@@H](CC(=O)O)C(=O)O)cc(C3=NOC(CC(=O)O)(C(=O)O)C3)c2)cc1` (stereo partly drawn) [Example 19, N-(3-(3-((4-carbamimidamidobenzoyl)oxy)-5-(5-carboxy-5-(carboxymethyl)-4,5-dihydro-1,2-oxazol-3-yl)phenyl)propanoyl)-L-aspartic acid], the inhibition at 3.3 µM was 101%.
Still for that read-out and setting: to `N=C(N)Nc1ccc(C(=O)Oc2ccc(CCC(=O)N[C@@H](CC(=O)O)C(=O)O)c(C3=NOC(CC(=O)O)(CC(=O)O)C3)c2)cc1` [Example 20, N-(3-(2-(5,5-bis(carboxymethyl)-4,5-dihydro-1,2-oxazol-3-yl)-4-((4-carbamimidamidobenzoyl)oxy)phenyl)propanoyl)-L-aspartic acid] belongs 100%; to `N=C(N)Nc1ccc(C(=O)Oc2ccc(C3CCN(C(=O)CCC(=O)N[C@@H](CC(=O)O)C(=O)O)CC3)c(C3=NOC(CC(=O)O)(CC(=O)O)C3)c2)cc1` [Example 21, N-(4-(4-(2-(5,5-bis(carboxymethyl)-4,5-dihydro-1,2-oxazol-3-yl)-4-((4-carbamimidamidobenzoyl)oxy)phenyl)piperidin-1-yl)-4-oxobutanoyl)-L-aspartic acid], 100%; to `N=C(N)Nc1ccc(C(=O)Oc2ccc(C3CCN(CCC(=O)O)CC3)c(C3=NOC(CC(=O)O)(CC(=O)O)C3)c2)cc1` [Example 22, 3-(4-(2-(5,5-Bis(carboxymethyl)-4,5-dihydro-1,2-oxazol-3-yl)-4-((4-carbamimidamidobenzoyl)oxy)phenyl)piperidin-1-yl)propanoic acid ditrifluoroacetate], 101%.
Turning to `N=C(N)Nc1ccc(C(=O)Oc2cc(CCC(=O)N[C@@H](CC(=O)O)C(=O)O)cc(C3=NOC(CC(=O)O)(CC(=O)O)C3)c2)cc1` [Example 23, N-(3-(3-(5,5-bis(carboxymethyl)-4,5-dihydro-1,2-oxazol-3-yl)-5-((4-carbamimidamidobenzoyl)oxy)phenyl)propanoyl)-L-aspartic acid], the inhibition at 3.3 µM was 100%.
On the same count and under the same terms, to `N=C(N)Nc1ccc(C(=O)Oc2ccc(CCC(=O)O)c(C3=NOC(CC(=O)O)(CC(=O)O)C3)c2)cc1` [Example 24, 3-(2-(5,5-bis(carboxymethyl)-4,5-dihydro-1,2-oxazol-3-yl)-4-((4-carbamimidamidobenzoyl)oxy)phenyl)propanoic acid] belongs 100%.
On the same count and under the same terms, the same measure for `N=C(N)Nc1ccc(C(=O)Oc2ccc(CCC(=O)N3CCS(=O)(=O)CC3)c(C3=NOC(CC(=O)O)(CC(=O)O)C3)c2)cc1` [Example 25, 2,2′-(3-(5-((4-Carbamimidamidobenzoyl)oxy)-2-(3-(1,1-dioxidothiomorpholin-4-yl)-3-oxopropyl)phenyl)-4,5-dihydro-1,2-oxazole-5,5-diyl)diacetic acid]: 100%.
On the same count and under the same terms, the same measure for `N=C(N)Nc1ccc(C(=O)Oc2ccc(CCC(=O)N3CCOCC3)c(C3=NOC(CC(=O)O)(CC(=O)O)C3)c2)cc1` [Example 26, 2,2′-(3-(5-((4-carbamimidamidobenzoyl)oxy)-2-(3-(morpholin-4-yl)-3-oxopropyl)phenyl)-4,5-dihydro-1,2-oxazole-5,5-diyl) diacetic acid]: 100%.
